Where “and” joins values, the source holds several entries; their conditions need not be identical. Equal values may be shown once. Toxic doses and inconclusive results are not listed. No stated cut-off is given here; in the data, active means T/C of 150% or more; inactive means T/C below 125%.
System: L1210 leukemia ip in BDF1 mice, survival T/C
Experiment: NCI In Vivo Anticancer Drug Screen. Data for tumor model L1210 Leukemia (intraperitoneal) in B6D2F1 (BDF1) mice
Settings: endpoint: mean survival time, higher = longer survival
In short: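 Tumor cells were implanted, animals were treated, and survival was followed. The result divides the treated measurement by the vehicle-control measurement.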

[1] = dose: 100.0 mg/kg/injection, schedule: Q04DX003 (ip), vehicle: Klucel (hydroxypropylcellulose) (HPC)
[2] = dose: 200.0 mg/kg/injection, schedule: Q04DX003 (ip), vehicle: Klucel (hydroxypropylcellulose) (HPC)
[3] = dose: 100.0 mg/kg/injection, schedule: Q01DX009 (ip), vehicle: saline with Tween-80
[4] = dose: 75.0 mg/kg/injection, schedule: Q01DX001 (ip), vehicle: saline
[5] = dose: 100.0 mg/kg/injection, schedule: Q01DX001 (ip), vehicle: saline
[6] = dose: 200.0 mg/kg/injection, schedule: Q01DX009 (ip), vehicle: saline with Tween-80

Measured: T/C

COC(=O)C(CCC(=O)O)NC(=O)OCc1ccccc1 (stereo unspecified)
inactive: dose: 25.0 mg/kg/injection, schedule: Q01DX009 (ip), vehicle: Klucel (hydroxypropylcellulose) (HPC) 89 % of control | dose: 50.0 mg/kg/injection, schedule: Q01DX001 (ip), vehicle: Klucel (hydroxypropylcellulose) (HPC) 94 % of control | dose: 50.0 mg/kg/injection, schedule: Q01DX009 (ip), vehicle: Klucel (hydroxypropylcellulose) (HPC) 97 % of control | dose: 100.0 mg/kg/injection, schedule: Q01DX001 (ip), vehicle: Klucel (hydroxypropylcellulose) (HPC) 103 % of control | [1] 96 % of control | dose: 200.0 mg/kg/injection, schedule: Q01DX001 (ip), vehicle: Klucel (hydroxypropylcellulose) (HPC) 97 % of control | [2] 86 % of control

O=C(Nc1ccc(Cl)c([N+](=O)[O-])c1)Nc1nnc(Br)s1
inactive: dose: 100.0 mg/kg/injection, schedule: Q01DX009 (ip), vehicle: Klucel (hydroxypropylcellulose) (HPC) 104 % of control | dose: 200.0 mg/kg/injection, schedule: Q01DX009 (ip), vehicle: Klucel (hydroxypropylcellulose) (HPC) 90 % of control | dose: 400.0 mg/kg/injection, schedule: Q01DX009 (ip), vehicle: Klucel (hydroxypropylcellulose) (HPC) 97 % of control

COc1ccc2nc3cc(Cl)ccc3c(NCCNCCNCCNc3c4ccc(Cl)cc4nc4ccc(OC)cc34)c2c1
inactive: dose: 6.25 mg/kg/injection, schedule: Q01DX009 (ip), vehicle: saline with Tween-80 100 % of control | dose: 12.5 mg/kg/injection, schedule: Q01DX009 (ip), vehicle: saline with Tween-80 91 % of control | dose: 25.0 mg/kg/injection, schedule: Q01DX009 (ip), vehicle: saline with Tween-80 101 % of control | [3] 107 % of control

CS(=O)(=O)OCCN(CCOS(C)(=O)=O)c1ccc(C=O)cc1
inactive: dose: 3.8 mg/kg/injection, schedule: Q01DX009 (ip), vehicle: saline 122 % of control | dose: 6.0 mg/kg/injection, schedule: Q01DX001 (ip), vehicle: saline 112 % of control | dose: 7.5 mg/kg/injection, schedule: Q01DX009 (ip), vehicle: saline 113 % of control | dose: 12.0 mg/kg/injection, schedule: Q01DX001 (ip), vehicle: saline 118 % of control | dose: 15.0 mg/kg/injection, schedule: Q01DX009 (ip), vehicle: saline 122 % of control | dose: 25.0 mg/kg/injection, schedule: Q01DX001 (ip), vehicle: saline 120 % of control | dose: 30.0 mg/kg/injection, schedule: Q01DX009 (ip), vehicle: saline 116 % of control | dose: 60.0 mg/kg/injection, schedule: Q01DX009 (ip), vehicle: saline 116 % of control and 118 % of control | [4] 104 % of control | dose: 99.0 mg/kg/injection, schedule: Q01DX009 (ip), vehicle: saline 110 % of control

OC(CNCCc1ccccc1)COc1cccc2ccccc12 (stereo unspecified)
inactive: dose: 25.0 mg/kg/injection, schedule: Q04DX003 (ip), vehicle: Klucel (hydroxypropylcellulose) (HPC) 97 % of control | dose: 50.0 mg/kg/injection, schedule: Q04DX003 (ip), vehicle: Klucel (hydroxypropylcellulose) (HPC) 95 % of control | [1] 95 % of control

O=C1CCCC/C1=N/Nc1ccccc1
inactive: dose: 5.0 mg/kg/injection, schedule: Q01DX009 (ip), vehicle: saline with Tween-80 93 % of control | dose: 5.0 mg/kg/injection, schedule: Q04DX003 (ip), vehicle: saline with Tween-80 98 % of control | dose: 10.0 mg/kg/injection, schedule: Q01DX009 (ip), vehicle: saline with Tween-80 102 % of control | dose: 10.0 mg/kg/injection, schedule: Q04DX003 (ip), vehicle: saline with Tween-80 102 % of control | dose: 20.0 mg/kg/injection, schedule: Q01DX009 (ip), vehicle: saline with Tween-80 95 % of control | dose: 20.0 mg/kg/injection, schedule: Q04DX003 (ip), vehicle: saline with Tween-80 99 % of control

CCCCCCCC/C=C/CCCCCCCC(=O)NCC[N+]1(C)CCCCC1
inactive: [4] 95 % of control

OCC1OC(n2cc(Br)c3c(NO)ncnc32)C(O)C1O (stereo unspecified)
inactive: dose: 5.0 mg/kg/injection, schedule: Q01DX001 (ip), vehicle: saline 103 % of control | dose: 10.0 mg/kg/injection, schedule: Q01DX001 (ip), vehicle: saline 101 % of control

Sc1cccc2cccnc12.[Ni]
inactive: dose: 50.0 mg/kg/injection, schedule: Q01DX001 (ip), vehicle: saline 111 % of control | [5] 98 % of control | dose: 200.0 mg/kg/injection, schedule: Q01DX001 (ip), vehicle: saline 98 % of control | dose: 400.0 mg/kg/injection, schedule: Q01DX001 (ip), vehicle: saline 98 % of control

O=C(NNc1ccccc1)NNc1ccccc1 (tested in a mixture with another compound)
inactive: dose: 50.0 mg/kg/injection, schedule: Q01DX009 (ip), vehicle: saline with Tween-80 95 % of control | [3] 95 % of control | [6] 99 % of control

CC1CC(C)(C)NC(C2CCC=CO2)N1 (stereo unspecified)
inactive: dose: 44.0 mg/kg/injection, schedule: Q01DX Z (ip), vehicle: saline 115 % of control | dose: 100.0 mg/kg/injection, schedule: Q01DX Z (ip), vehicle: saline 107 % of control

O=C(O)C(Br)C(Br)C(=O)Nc1ccc(F)cc1 (stereo unspecified)
inactive: dose: 100.0 mg/kg/injection, schedule: Q04DX002 (ip), vehicle: saline with Tween-80 104 % of control | dose: 200.0 mg/kg/injection, schedule: Q04DX002 (ip), vehicle: saline with Tween-80 93 % of control

Nc1nc(N)c2[nH]c(CO)nc2n1
inactive: dose: 75.0 mg/kg/injection, schedule: Q01DX001 (ip), vehicle: carboxymethylcellulose (CMC) 110 % of control | dose: 150.0 mg/kg/injection, schedule: Q01DX001 (ip), vehicle: carboxymethylcellulose (CMC) 97 % of control | dose: 300.0 mg/kg/injection, schedule: Q01DX001 (ip), vehicle: carboxymethylcellulose (CMC) 105 % of control

Nc1c(Cl)cc(S(N)(=O)=O)cc1Cl
inactive: dose: 100.0 mg/kg/injection, schedule: Q01DX009 (ip), vehicle: other 98 % of control | dose: 100.0 mg/kg/injection, schedule: Q04DX003 (ip), vehicle: other 100 % of control | dose: 200.0 mg/kg/injection, schedule: Q01DX009 (ip), vehicle: other 91 % of control | dose: 200.0 mg/kg/injection, schedule: Q04DX003 (ip), vehicle: other 98 % of control | dose: 400.0 mg/kg/injection, schedule: Q04DX003 (ip), vehicle: other 98 % of control

CC(C(=O)c1cc(O)c(O)cc1C(O)(C(F)(F)F)C(F)(F)F)C(O)(C(F)(F)F)C(F)(F)F (stereo unspecified)
inactive: dose: 100.0 mg/kg/injection, schedule: Q04DX003 (ip), vehicle: saline with Tween-80 102 % of control | dose: 200.0 mg/kg/injection, schedule: Q04DX003 (ip), vehicle: saline with Tween-80 98 % of control | dose: 400.0 mg/kg/injection, schedule: Q04DX003 (ip), vehicle: saline with Tween-80 98 % of control

CCN(CC)Cc1ccccc1COC(=O)c1ccc(Cl)cc1
inactive: dose: 100.0 mg/kg/injection, schedule: Q04DX002 (ip), vehicle: Klucel (hydroxypropylcellulose) (HPC) 96 % of control | dose: 200.0 mg/kg/injection, schedule: Q04DX002 (ip), vehicle: Klucel (hydroxypropylcellulose) (HPC) 101 % of control | dose: 400.0 mg/kg/injection, schedule: Q04DX002 (ip), vehicle: Klucel (hydroxypropylcellulose) (HPC) 88 % of control

CCCN(CCC)CCCN(CCC)CCCCN(CCC)CCCN(CCC)CCC
inactive: [5] 98 % of control

CC1=NN(c2ccccc2)C(=O)CC1
inactive: [1] 106 % of control | [2] 100 % of control | dose: 400.0 mg/kg/injection, schedule: Q04DX003 (ip), vehicle: Klucel (hydroxypropylcellulose) (HPC) 105 % of control

CN1CN(c2ccccc2)C2(CCN(C(=O)/C=C/c3ccc(F)cc3)CC2)C1=O
inactive: dose: 75.0 mg/kg/injection, schedule: Q04DX003 (ip), vehicle: Klucel (hydroxypropylcellulose) (HPC) 92 % of control | dose: 150.0 mg/kg/injection, schedule: Q04DX003 (ip), vehicle: Klucel (hydroxypropylcellulose) (HPC) 88 % of control

C[Si](C)(C)C1C=Cc2ccccc2C1[Si](C)(C)C (stereo unspecified)
inactive: [3] 94 % of control | [6] 91 % of control | dose: 400.0 mg/kg/injection, schedule: Q01DX009 (ip), vehicle: saline with Tween-80 94 % of control

NCCO[Si](OCCN)(OCCN)OCCN
inactive: dose: 50.0 mg/kg/injection, schedule: Q01DX009 (ip), vehicle: saline 93 % of control | dose: 100.0 mg/kg/injection, schedule: Q01DX009 (ip), vehicle: saline 88 % of control

CC1=C(Cl)C(=O)C(Cl)=C(Cl)C1=O
inactive: [4] 103 % of control

CC(C)N(C(=O)Nc1ccc(Cl)cc1)C1CCCCC1
inactive: dose: 87.5 mg/kg/injection, schedule: Q04DX003 (ip), vehicle: carboxymethylcellulose (CMC) 101 % of control | dose: 175.0 mg/kg/injection, schedule: Q04DX003 (ip), vehicle: carboxymethylcellulose (CMC) 96 % of control | dose: 350.0 mg/kg/injection, schedule: Q04DX003 (ip), vehicle: carboxymethylcellulose (CMC) 95 % of control

From PubChem BioAssay AID248 (DTP/NCI, 2004)
